Laboratory results taken from patent US5840859A, “(Aminostyryl)pyridinium compounds for radiolabelling cell membranes” (Research Corporation Technologies, Inc., priority 1996, dated 1998).

What was measured:
mixed leukocytes = experiment: Mixed leukocyte labeling yield; type: cell-based, canine; details: for Mixed leukocyte labeling yield: 125I labeled, average, 10-30 μCi, 250-325 Ci/mmol
Description: Labeling of mixed leukocytes (harvested from 20 mL canine blood) with 4a-d was performed using five different procedures: 1) labeling in Diluent C (a commercial non-ionic cell labeling media developed by Zynaxis Co. that is not approved for human use) after two saline washes of the cell pellet; 2) labeling in saline after two saline washes of the cell pellet; 3) labeling in saline with no saline washes of the cell pellet; 4 and 5) labeling in ether 10% or 100% platelet poor plasma (PPP).
Unwashed mixed leukocytes in 1.5 mL 10% PPP in saline were also tested. […]
This was evaporated to dryness under vacuum in a speed vac and reconstituted into 30 ul ethanol. Forty milliliters of canine blood was drawn into a 60 mL syringe containing 6.5 mL acetate-citrate-dextrose solution. To this was added 5.5 mL 2% methyl cellulose in saline. The contents of the syringe were gently mixed by several inversions of the syringe and the syringe placed vertically, needle end up, for 45 minutes to allow the red blood cells to settle. The plasma was drawn off and placed into a 50 mL Falcon tube. The tube was centrifuged at 1100 rpm for 15 minutes to pellet the leukocytes. The plasma was removed and the cells resuspended in 2 mL saline. In a 1 mL plastic microcentrifuge was placed 0.5 mL saline. […] The cells were then underlayered with 7.5 mL of platelet poor plasma and centrifuged at 1600 rpm for seven minutes to pellet the cells. The supernatant was removed, the cells resuspended in 10 mL saline, and transferred to a new tube. The supernatant, cells, and labeling tube were counted for radioactivity. The cells were centrifuged again at 1600 rpm for 7 minutes, the supernatant removed, and the cells resuspended.
A sample of canine blood (20 mL) was drawn into a 60 mL syringe containing 3 mL acetate-citrate-dextrose (ACD) solution. To this was added 3 mL 2% methyl cellulose in saline. The contents of the syringe were gently mixed by several inversions, and the syringe was then placed vertically, needle end up, for 45 min to allow the red blood cells to settle. The plasma was drawn off and transferred to a 50 mL Falcon tube. The tube was centrifuged at 1100 rpm for 15 min to pellet the leukocytes. The plasma was removed and the cells resuspended in 10 mL saline. The tube was centrifuged at 1600 rpm for 7 min, the supernatant removed, and the cells resuspended in 10 mL saline and recentrifuged at 1600 rpm for 7 min. The supernatant was then removed and the cells resuspended in 2 mL Diluent C. Into a 1 mL plastic microcentrifuge tube was placed 0.5 mL Diluent C. […] The indium complex in Diluent C was immediately added to the leukocytes and the cells were placed vertically on a Nutator rocking apparatus and rocked gently for 30 min at room temperature. The cells were then underlayered with 5 mL of platelet poor plasma and centrifuged at 1600 rpm for 7 min to pellet the cells. The supernatant was removed, the cells resuspended in 10 mL saline, and transferred to a new tube. The supernatant, cells, and labeling tube were counted for radioactivity. The cells were centrifuged again at 1600 rpm for 7 min, the supernatant removed, and the cells resuspended.

[1] = Viability of labeled lymphocytes (Trypan Blue exclusion test); type: cell-based, dog and rat; details: before and after radiolabeling
Source text: (§1) Peripheral blood lymphocytes (PBLs) from dogs and rats as well as rat splenic lymphocytes were labeled in high yields with either 4a or 4b (Table 2). Viability of labeled lymphocytes was >90% both before and after radiolabeling (Trypan Blue exclusion test).

rat splenic lymphocytes [2] = experiment: Lymphocyte labeling yield, rat splenic lymphocytes; type: cell-based
Description: as §1
A 400 g Sprague-Dawley rat was sacrificed to remove the spleen (1.133 g). The spleen was perfused with phosphate buffered saline to remove the lymphocytes. The lymphocytes in 10 mL PBS were split into two equal portions and each portion was layered onto 5 mL of Lympholyte-Rat (Cedar Lane Laboratories Limited, Ontario, Canada) in a separate 15 mL centrifuge tube. The tubes were centrifuged at 2700 rpm for 20 minutes at room temperature. The lymphoctyes appeared as a layer at the interface of the saline and Lympholyte-Rat layers. The saline layer was removed and discarded. The lymphocyte containing layer from each tube was removed and transferred to a single 50 mL Falcon tube. To this tube was added 10 mL saline and the tube centrifuged for 7 minutes at 1600 rpm. The supernatant was removed, the cells resuspended in 10 mL saline, and centrifuged at 1600 rpm for 7 minutes. The supernatant was removed and the cells suspended in 1 mL saline. […] […] To these cells was added 20 ul of an ethanolic solution of 3-[4-[2-(N,N-dihexylamino)phenyl]ethyenyl]pyridino-E-1-[^125 I]-iodo-propene (15.6 uCi) dissolved in 500 ul of saline. The cells were place vertically on a Nutator rocking apparatus and rocked gently for 20 minutes at room temperature. The cells were then underlayered with 7.5 mL of saline and centrifuged at 1600 rpm for seven minutes to pellet the cells. The supernatant was removed, the cells resuspended in 10 mL saline, and transferred to a new tube. The supernatant, cells, and labeling tube were counted for radioactivity. The cells were centrifuged again at 1600 rpm for 7 minutes, the supernatant removed, and the cells resuspended. After the second centrifugation, 11.9uCi (77%) of ^131 I was bound to the lymphocytes. After labeling, 12% of the cells were dead by the trypan blue exclusion test.

[3] = tested on: sodium urate induced abscess in the stifle joint; experiment: Localization of labeled leukocytes in dogs having a sodium urate induced abscess in the stifle joint (aspirate, gamma camera images)
Source text: Mixed leukocytes labeled with 4b and ^111 In-oxine labeled mixed leukocytes were compared in dogs having a sodium urate-induced inflammation in the left stifle joint. […]

mononuclear leukocytes = experiment: Mononuclear leukocyte labeling yield; type: cell-based; details: harvested from 20 mL canine blood via isolymph method
Description: Using ^125 I-4b and ^131 I-4b, mononuclear leukocytes harvested from 20 mL canine blood via the isolymph method (sodium diatrizoste and Ficol 400, d=1.077) were labeled in 77% and 85% yields, respectively. Thus, the present compounds can label both lymphocytes and mixed leukocytes in high yields, and that the latter can be used to image sites of focal inflammation.

rat splenic lymphocytes [4] = experiment: Rat splenic lymphocyte survival after labeling (Trypan blue exclusion test); type: cell-based; details: Example 11, trypan blue
Description: (§2) A 400 g Sprague-Dawley rat was sacrificed to remove the spleen (1.133 g). The spleen was perfused with phosphate buffered saline to remove the lymphocytes. The lymphocytes in 10 mL PBS were split into two equal portions and each portion was layered onto 5 mL of Lympholyte-Rat (Cedar Lane Laboratories Limited, Ontario, Canada) in a separate 15 mL centrifuge tube. The tubes were centrifuged at 2700 rpm for 20 minutes at room temperature. The lymphoctyes appeared as a layer at the interface of the saline and Lympholyte-Rat layers. The saline layer was removed and discarded. The lymphocyte containing layer from each tube was removed and transferred to a single 50 mL Falcon tube. To this tube was added 10 mL saline and the tube centrifuged for 7 minutes at 1600 rpm. The supernatant was removed, the cells resuspended in 10 mL saline, and centrifuged at 1600 rpm for 7 minutes. The supernatant was removed and the cells suspended in 1 mL saline. Using a hemocytometer, a total of 5 million lymphocytes were counted. […] To these cells was added 20 ul of an ethanolic solution of 3-[4-[2-(N,N-dihexylamino)phenyl]ethyenyl]pyridino-E-1-[^125 I]-iodo-propene (15.6 uCi) dissolved in 500 ul of saline. The cells were place vertically on a Nutator rocking apparatus and rocked gently for 20 minutes at room temperature. […] The supernatant, cells, and labeling tube were counted for radioactivity. […]

[5] = as above; type: cell-based; details: rat, splenic lymphocytes; Example 11, trypan blue; 12% dead before labeling; read-out: dead cells after labeling
Description: as §2

CCCCN(CCCC)c1ccc(/C=C/c2cc[n+](C/C=C/[125I])cc2)cc1 [Compound 4a]
Mixed leukocyte labeling yield (mixed leukocytes; 10% PPP in saline): 41% | Mixed leukocyte labeling yield (mixed leukocytes; Diluent C): 75% | Mixed leukocyte labeling yield (mixed leukocytes; saline, 2 washes of pellet): 72% | Mixed leukocyte labeling yield (mixed leukocytes; saline, no washes of pellet): 71% | Leukocyte labeling (in words) (mixed leukocytes; Diluent C, or saline with or without washes of the cell pellet): labeled leukocytes in high yield | viability [1]: > 90% | Lymphocyte labeling (in words) (rat splenic lymphocytes [2]; PBLs from dogs and rats and rat splenic lymphocytes): high yields | Lymphocyte labeling yield (rat splenic lymphocytes [2]; Rat spleen, Lympholyte-Rat, 63-300 × 10^6 cells, PBS, 125I, average): 71%

CCCCCCN(CCCCCC)c1ccc(/C=C/c2cc[n+](C/C=C/[125I])cc2)cc1 [^125 I-4b, 3-[4-[2-(N,N-dihexylamino)phenyl]ethyenyl]pyridino-E-1-[^125 I]-iodo-propene]
Labeling Yield (mixed leukocytes; 1.5 ml saline, pellet not washed): 80% | Labeling Yield (mixed leukocytes; 1.5 ml saline, pellet washed with 1×10 mL saline): 84% | Labeling Yield (mixed leukocytes; 1.5 ml saline, pellet washed with 2×10 mL saline): 82% | Labeling Yield (mixed leukocytes; Table 3 Experiment 1, 4b 250 Ci/mmol, Diluent C after 2 × 10 mL saline washes): 84% | Labeling Yield (mixed leukocytes; Table 3 Experiment 2, 4b footnotes a,c (250 / 1000 Ci/mmol)): 88% | Labeling Yield (mixed leukocytes; unwashed, 1.5 mL 10% PPP in saline): 83% | 131I/111In or 125I/111In in aspirate ([3]; Experiment 1): 1.65 | % aspirate radioactivity cell bound ([3]; Experiment 1): 98% | % inj. dose in abscess aspirate ([3]; Experiment 1, injected 84 μCi 125I-4b, 500 μCi 111In-oxine, Diluent C): 0.594% | 131I/111In or 125I/111In in aspirate ([3]; Experiment 2): 6.0 | % aspirate radioactivity cell bound ([3]; Experiment 2): 96% | % inj. dose in abscess aspirate ([3]; Experiment 2, injected 66 μCi 125I-4b, 312 μCi 111In-oxine): 0.527% | localization of labeled leukocytes in induced inflammatory site/abscess, compared with 111In-oxine (111In-labeled) leukocytes ([3]; sodium urate induced abscess, dog): higher degree of localization | Mononuclear leukocyte labeling yield (mononuclear leukocytes): 77% | effect of labeling on cell survival (rat splenic lymphocytes [4]): the labeling did not affect cell survival | cytotoxicity [5]: 12% | radioactivity bound to the lymphocytes (labeling yield) (rat splenic lymphocytes [2]; Example 11, 5 million lymphocytes, saline, 15.6 uCi, 20 min, room temperature): 77% | radioactivity bound to the lymphocytes (rat splenic lymphocytes [2]; Example 11, of 15.6 uCi added): 11.9 uCi
